Numbered stars: 1 amine (or outer) side, 2 acyl side, 3 side chain; on linkers, the order of the positions; unused ones are H or OH. Bridge positions count the residues as written; N and C are the ends. Square brackets hold non-standard residues; d marks the D form. Peptide text beside a SMILES is read from it. * marks the point of attachment. X1 = O=C(O)c1cc(NC(=S)*)ccc1-c1c2ccc(=O)cc-2oc2cc(O)ccc12; X4 = [N-]=[N+]=NCC(=O)Nc1ccc(N*)cc1; Dap = NC[C@H](N)C(=O)O; X3 = O=C(C[*:2])[*:1]; X2 = Oc1ccc(N*)cc1; βAla = NCCC(=O)O
How the values were obtained:
[1] = molecular target: T1, atezolizumab (Homo sapiens, UniProt P01857, D239E/L241M/N180A); experiment: Acetylation of atezolizumab by peptide F1, MALDI-TOF MS / SDS-PAGE; format: biochemical; design: purchased SelleckChem A2004; details: for heavy chain modified: 4 μM Atezo, 24 μM F1, PBS pH 7.4, 37° C., MALDI-TOF MS
T1 sequence (P01857 whole entry N180A/D239E/L241M, looked up, other chains not shown): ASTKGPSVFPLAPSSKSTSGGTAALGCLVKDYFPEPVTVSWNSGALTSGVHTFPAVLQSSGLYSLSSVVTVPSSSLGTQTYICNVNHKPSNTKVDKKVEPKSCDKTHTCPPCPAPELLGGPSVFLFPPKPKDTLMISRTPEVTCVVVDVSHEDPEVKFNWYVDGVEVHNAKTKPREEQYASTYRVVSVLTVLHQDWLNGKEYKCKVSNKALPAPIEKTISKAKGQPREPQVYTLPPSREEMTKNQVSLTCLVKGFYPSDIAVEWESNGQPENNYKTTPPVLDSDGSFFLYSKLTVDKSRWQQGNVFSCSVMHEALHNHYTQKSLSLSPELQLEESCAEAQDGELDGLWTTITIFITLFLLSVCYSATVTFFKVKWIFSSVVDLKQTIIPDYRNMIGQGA
Protocol: (FIG. 4A) Acetylation reaction monitored by SDS-PAGE and fluorescent scanning. Reaction condition: 4 μM Atezo, 24 μM F1, PBS buffer (pH 7.4), at 37° C. for 1 h. The reactions were quenched with 1% SDS and DBCO-TAMRA was added at room temperature for 1.5 h for SPAAC reaction before SDS-PAGE and in-gel fluorescent imaging. […] (FIG. 4C) In-gel digestion for MALDI-TOF MS analysis to identify the acetylation site. Modified Lys 248 was marked in red. L chain: light chain, H chain: heavy chain, M-H chain: modified heavy chain, Atezo: atezolizumab.
(§1) IgG or IgG Fc labelling reactions. Unless otherwise noted, the final concentrations of proteins were 4 μM and peptides were 24 μM. The conjugation reactions were performed in PBS buffer (pH 7.4, 137 mM NaCl, 2.7 mM KCl, 10 mM Na2HPO4, 1.8 mM KH2PO4) at 37° C. for 1 h and stopped by 1% SDS. For copper-free click chemistry, the protein-peptide reaction mixture was first incubated with 100 uM DBCO-TAMRA at room temperature for 2 h and then denatured in the presence of loading dye. After resolved by SDS-PAGE, the gel was first observed in the fluorescence channel, and then stained with Coomassie Brilliant Blue dye.
Characterization of IgG or IgG Fc modification by MALDI-TOF MS. To characterize Fc region, 5 μg protein sample was used. Firstly, Fc was treated in the presence of TCEP (20 mM) at 60° C. for 10 min. Then, the sample was acidified with TFA at a pH of <4. After prewetting, C4 ZipTip was equilibrated with water (0.1% TFA). Binding of Fc was realized by aspirating and dispensing sample 7 to 10 cycles. The tip was next washed 3 times and eluted by 5 μL 70% acetonitrile/water solution with 0.1% TFA. Now the sample was ready for MALDI-TOF MS analysis. For characterization of modified Fc region, the reaction was first quenched by acidification (For acid labile antibodies, the peptide f-F0 could be used to quench the reaction.). After coupling with DBCO-TAMRA, the sample was reduced. Then, the sample was desalted and concentrated by using the same procedure. […]

[2] = tested on: rabbit IgG; experiment: Target selectivity of peptide-driven acetylation towards IgG from different species (rabbit); format: biochemical; details: 4 μM protein, 24 μM F1, PBS pH 7.4, 37° C., 1 h
Protocol: (§2) FIG. 10 Target selectivity of peptide-driven acetylation towards IgG from different species. Reaction condition: 4 μM protein, 24 μM F1, PBS buffer (pH 7.4), at 37° C. for 1 h. The reactions were quenched with 1% SDS and DBCO-TAMRA was added at room temperature for 1.5 h for copper-free click chemistry. […] Each lane contains […] of antibodies.
as §1

[3] = Hydrolysis of peptide ester monitored by HPLC; format: physicochemical
Protocol: (§3) FIG. 2A-2C Kinetic details of the acetylation reaction and hydrolysis of F1. (FIG. 2A) Reactions at different peptide-to-IgG Fc ratios. Reactions were performed in PBS buffer (pH 7.4) at 37° C. for 1 h. Protein loading in each lane is 2 μg. (FIG. 2B) Reaction kinetics. Reaction condition: 4 μM IgG Fc, 24 μM F1, PBS buffer (pH 7.4), at 37° C. The reactions were quenched with 1% SDS at different time points. After conducting an SPAAC reaction with DBCO-PEG4-TAMRA, the reactions were denatured and resolved by SDS-PAGE. Product conversion was quantified based on band-shift in the SDS-PAGE image. (FIG. 2C) Hydrolysis of peptide ester (24 μM) monitored by HPLC in pH 7.4 PBS buffer at 37° C.

[4] = tested on: human IgG Fc; experiment: Peptide-driven acetylation (labelling) of human IgG Fc, SDS-PAGE in-gel fluorescence / MALDI-TOF MS; format: biochemical; details: for yield of the labeled Fc: MS peak area after Glu-C digestion (F11: in-gel fluorescence, ImageJ)
Protocol: as §3
FIG. 27A-27B The study of IgG Fc acetylation reaction with different payloads. (FIG. 27A) A set of reactive peptides with different acyl groups tested for labeling efficiency. (FIG. 27B) The yields of IgG Fc labeled by peptides at 37° C. Reaction condition: 4 μM IgG Fc, 24 μM peptide, in PBS buffer (pH 7.4) for 2 h or in borate buffer (pH 8.5) for 15 h, respectively. […] The yields were quantified by MS analysis with in-solution Glu-C digestion of modified Fc or by in-gel fluorescent image (FIGS. 27A-27B, […]).
as §1
Characterization of IgG or IgG Fc modification by MALDI-TOF MS. To characterize Fc region, 5 μg protein sample was used. Firstly, Fc was treated in the presence of TCEP (20 mM) at 60° C. for 10 min. Then, the sample was acidified with TFA at a pH of <4. After prewetting, C4 ZipTip was equilibrated with water (0.1% TFA). Binding of Fc was realized by aspirating and dispensing sample 7 to 10 cycles. The tip was next washed 3 times and eluted by 5 μL 70% acetonitrile/water solution with 0.1% TFA. Now the sample was ready for MALDI-TOF MS analysis. For characterization of modified Fc region, the reaction was first quenched by acidification (For acid labile antibodies, the peptide f-F0 could be used to quench the reaction.). After coupling with DBCO-TAMRA, the sample was reduced. Then, the sample was desalted and concentrated by using the same procedure. […] Next the sample was purified by HPLC with C4 column, and peaks were collected and lyophilized. The sample was dissolved in 50% acetonitrile/water solution with 0.1% TFA and subjected to MALDI-TOF MS analysis.

[5] = tested on: IgG Fc in a protein mixture of HeLa cell lysate; details: Fc-spiked HeLa cell lysate, RIPA lysis buffer pH 7.4, 37° C., 1 h, 6-fold excess of peptide
Protocol: Fc protein was spiked to a mixture of proteins from HeLa cell lysate, and the F1 peptide was added to the lysate to initiate acetylation reaction. […] Reactions were performed in pH 7.4 RIPA lysis buffer at 37° C. for 1 h with a 6-fold excess of peptides, followed by copper-free click chemistry with DBCO-TAMRA. Then the reactions were analyzed by denaturing SDS-PAGE and imaged using in-gel fluorescence scanning and Coomassie blue staining.

[6] = tested on: IgG Fc from mice; experiment: Target selectivity of peptide-driven acetylation towards IgG from different species (mouse); format: biochemical; details: 4 μM protein, 24 μM F1, PBS pH 7.4, 37° C., 1 h
Protocol: as §2, §1

[7] = molecular target: T1, atezolizumab; experiment: biochemical
Excerpt: Ligand-induced fluorescence change was used to determine the Kd value. (FIG. 13A) Dose response curve. (FIG. 13B) Capillary scans. (FIG. 13C) MST traces.
Ligand-induced fluorescence change was used to determine the Kd value. (FIG. 14A) Dose response curve. (FIG. 14B) Capillary scans. (FIG. 14C) MST traces.
Ligand-induced fluorescence change was used to determine the Kd value. (FIG. 15A) Dose response curve. (FIG. 15B) Capillary scans. (FIG. 15C) MST traces.
Microscale thermophoresis (MST) binding experiments. […] The measurements were performed in phosphate buffered saline supplemented with 0.05% Tween-20 (PBS-T). […] The measurements were performed on a NanoTemper Technologies Monolith NT.115 instrument. The settings of MST power was medium and LED power was Auto-detect.

[8] = 4 μM IgG Fc, 24 μM peptide, 37° C., PBS buffer (pH 7.4) for 2 h
[9] = 4 μM IgG Fc, 24 μM peptide, 37° C., borate buffer (pH 8.5) for 15 h

SMILES: CC(=O)N[C@@H](CC(=O)O)C(=O)N[C@H]1CNC(=O)CSC[C@@H](C(=O)N[C@H](C(N)=O)[C@@H](C)O)NC(=O)[C@H](Cc2c[nH]c3ccccc23)NC(=O)[C@H](C(C)C)NC(=O)[C@H](CC(C)C)NC(=O)[C@H](CCC(=O)Nc2ccc(OC(=O)CN=[N+]=[N-])cc2)NC(=O)CNC(=O)[C@H](CC(C)C)NC(=O)[C@H](Cc2c[nH]cn2)NC(=O)[C@H](Cc2c[nH]c3ccccc23)NC(=O)[C@H](C)NC1=O [F1]
- chain selectivity of acetylation ([1]; 37° C. for 1 h): acetylated the heavy chain only
- heavy chain modified ([1]; in 15 minutes): ~50%
- heavy chain modified ([1]; in 1 h): ~80%
- reactivity with IgG Fc by species [2]: only reacted with human and rabbit IgG Fcs
- stability of peptide ([3]; basic condition (pH 8.5)): extremely unstable at basic condition
- peptide ester lost by hydrolysis ([3]; in 1 h at pH 7.4, PBS, 37° C., 24 μM, absence of IgGs): about 70%
- time to 50% completion of the acetylation reaction ([4]; 4 μM IgG Fc, 24 μM F1, PBS buffer pH 7.4, 37° C.): less than 30 min
- acetylation reaction conversion within 1 h ([4]; IgG Fc 2 μM to 20 μM, F1:IgG Fc ratio 6:1, PBS pH 7.4, 37° C.): > 50%
- reactivity with IgG Fc by species ([4]; human, 4 μM protein, 24 μM F1, PBS pH 7.4, 37° C., 1 h): only reacted with human and rabbit IgG Fcs
- selectivity of acetylation in a complex protein mixture [5]: selectively acetylate IgG Fc in a protein mixture of HeLa cell lysate without an appreciable level of background reactions
- reactivity with IgG Fc by species [6]: not the IgG Fc from mice

SMILES: CC(=O)N[C@@H](CC(=O)O)C(=O)N[C@H]1CNC(=O)CSC[C@@H](C(=O)N[C@H](C(N)=O)[C@@H](C)O)NC(=O)[C@H](Cc2c[nH]c3ccccc23)NC(=O)[C@H](C(C)C)NC(=O)[C@H](CC(C)C)NC(=O)C(CCC(=O)Nc2cccc(OC(=O)CN=[N+]=[N-])c2)NC(=O)CNC(=O)[C@H](CC(C)C)NC(=O)[C@H](Cc2c[nH]cn2)NC(=O)[C@H](Cc2c[nH]c3ccccc23)NC(=O)[C@H](C)NC1=O (some centres unmarked) [F6]
- acetylation yield compared with F1 ([4]; 3-aminophenol linker instead of 4-aminophenol): markedly decreased the acetylation yield

SMILES: CC(=O)N[C@@H](CC(=O)O)C(=O)N[C@H]1CNC(=O)CSC[C@@H](C(=O)N[C@H](C(N)=O)[C@@H](C)O)NC(=O)[C@H](Cc2c[nH]c3ccccc23)NC(=O)[C@H](C(C)C)NC(=O)[C@H](CC(C)C)NC(=O)[C@H](CCC(=O)Nc2ccc(OC(C)=O)cc2)NC(=O)CNC(=O)[C@H](CC(C)C)NC(=O)[C@H](Cc2c[nH]cn2)NC(=O)[C@H](Cc2c[nH]c3ccccc23)NC(=O)[C@H](C)NC1=O [F7]
- yield of the labeled Fc [4, 8]: about 41%
- yield of the labeled Fc [4, 9]: 90%

SMILES: C#CCCC(=O)Oc1ccc(NC(=O)CC[C@@H]2NC(=O)CNC(=O)[C@H](CC(C)C)NC(=O)[C@H](Cc3c[nH]cn3)NC(=O)[C@H](Cc3c[nH]c4ccccc34)NC(=O)[C@H](C)NC(=O)[C@@H](NC(=O)[C@H](CC(=O)O)NC(C)=O)CNC(=O)CSC[C@@H](C(=O)N[C@H](C(N)=O)[C@@H](C)O)NC(=O)[C@H](Cc3c[nH]c4ccccc34)NC(=O)[C@H](C(C)C)NC(=O)[C@H](CC(C)C)NC2=O)cc1 [F8]
- yield of the labeled Fc [4, 8]: about 17%
- yield of the labeled Fc [4, 9]: 84%

SMILES: CC(=O)N[C@@H](CC(=O)O)C(=O)N[C@H]1CNC(=O)CSC[C@@H](C(=O)N[C@H](C(N)=O)[C@@H](C)O)NC(=O)[C@H](Cc2c[nH]c3ccccc23)NC(=O)[C@H](C(C)C)NC(=O)[C@H](CC(C)C)NC(=O)C(CCC(=O)Nc2ccc(OC(=O)CCCC[C@@H]3SC[C@@H]4NC(=O)N[C@@H]43)cc2)NC(=O)CNC(=O)[C@H](CC(C)C)NC(=O)[C@H](Cc2c[nH]cn2)NC(=O)[C@H](Cc2c[nH]c3ccccc23)NC(=O)[C@H](C)NC1=O (some centres unmarked) [F9]
- yield of the labeled Fc [4, 8]: about 18%
- yield of the labeled Fc [4, 9]: 73%

SMILES: CC(=O)N[C@@H](CC(=O)O)C(=O)N[C@H]1CNC(=O)CSC[C@@H](C(=O)N[C@H](C(N)=O)[C@@H](C)O)NC(=O)[C@H](Cc2c[nH]c3ccccc23)NC(=O)[C@H](C(C)C)NC(=O)[C@H](CC(C)C)NC(=O)[C@H](CCC(=O)Nc2ccc(OC(=O)c3ccc(C(=O)c4ccccc4)cc3)cc2)NC(=O)CNC(=O)[C@H](CC(C)C)NC(=O)[C@H](Cc2c[nH]cn2)NC(=O)[C@H](Cc2c[nH]c3ccccc23)NC(=O)[C@H](C)NC1=O [F10]
- yield of the labeled Fc [4, 8]: about 5%
- mass shift of Fc after reaction (MALDI-TOF MS) ([4]; 4 μM IgG Fc, 24 μM peptide, 37° C., PBS pH 7.4 2 h or borate pH 8.5 15 h): No obvious mass shift was observed
- yield of the labeled Fc [4, 9]: 26%

SMILES: CC(C)C[C@@H]1NC(=O)[C@H](Cc2c[nH]cn2)NC(=O)[C@H](Cc2c[nH]c3ccccc23)NC(=O)[C@H](C)NC(=O)[C@@H](NC(=O)[C@H](CC(=O)O)NC(=O)CCNC(=O)CNC(=S)Nc2ccc(-c3c4ccc(=O)cc-4oc4cc(O)ccc34)c(C(=O)O)c2)CNC(=O)CSC[C@@H](C(=O)N[C@H](C(N)=O)[C@@H](C)O)NC(=O)[C@H](Cc2c[nH]c3ccccc23)NC(=O)[C@H](C(C)C)NC(=O)[C@H](CC(C)C)NC(=O)[C@H](CCC(=O)Nc2ccc(O)cc2)NC(=O)CNC1=O [f-F4] (X1-G[βAla]D[Dap]AWHLGE(X2)LVWCT-NH2; linker 4-14 via X3)
- Kd [7]: 1.5 µM

SMILES: CC(C)C[C@@H]1NC(=O)[C@H](Cc2c[nH]cn2)NC(=O)[C@H](Cc2c[nH]c3ccccc23)NC(=O)[C@H](C)NC(=O)[C@@H](NC(=O)[C@H](CC(=O)O)NC(=O)CCNC(=O)CNC(=S)Nc2ccc(-c3c4ccc(=O)cc-4oc4cc(O)ccc34)c(C(=O)O)c2)CNC(=O)CSC[C@@H](C(=O)N[C@H](C(N)=O)[C@@H](C)O)NC(=O)[C@H](Cc2c[nH]c3ccccc23)NC(=O)[C@H](C(C)C)NC(=O)[C@H](CC(C)C)NC(=O)[C@H](CCC(=O)Nc2ccc(NC(=O)CN=[N+]=[N-])cc2)NC(=O)CNC1=O [f-F5] (X1-G[βAla]D[Dap]AWHLGE(X4)LVWCT-NH2; linker 4-14 via X3)
- Kd [7]: 2 µM
